Reference: ChEMBL document CHEMBL1201862, “PubChem BioAssay data set” (2004)
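Five concentrations, 48 hours, 96-well plates. GI50: concentration for 50% inhibition of growth.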 The source made the active and inactive calls. No stated cut-off is given here; in the data, active = GI50 up to about 1.1 µM and inactive = higher.

Tests used:
Test in all cases: DTP human tumour cell line panel, 48 h
[1] = test system: 786-0
[2] = test system: A498
[3] = test system: A549
[4] = test system: ACHN
[5] = test system: BT-549
[6] = test system: CAKI-1
[7] = test system: CCRF-CEM
[8] = test system: COLO 205
[9] = test system: DU-145
[10] = test system: EKVX
[11] = test system: HCT-116
[12] = test system: HCT-15
[13] = test system: HL-60
[14] = test system: HOP-62
[15] = test system: HOP-92
[16] = test system: HT-29
[17] = test system: Hs-578T
[18] = test system: IGROV-1
[19] = test system: K562
[20] = test system: KM12
[21] = test system: LOX IMVI
[22] = test system: M14
[23] = test system: MCF7
[24] = test system: MDA-MB-231
[25] = test system: MDA-MB-435
[26] = test system: MDA-N
[27] = test system: MOLT-4
[28] = test system: Malme-3M
[29] = test system: NCI-H226
[30] = test system: NCI-H23
[31] = test system: NCI-H460
[32] = test system: NCI-H522
[33] = test system: NCI/ADR-RES
[34] = test system: OVCAR-3
[35] = test system: OVCAR-4
[36] = test system: OVCAR-5
[37] = test system: OVCAR-8
[38] = test system: PC-3
[39] = test system: RPMI-8226
[40] = test system: RXF 393
[41] = test system: SF-268
[42] = test system: SF-295
[43] = test system: SF-539
[44] = test system: SK-MEL-28
[45] = test system: SK-MEL-2
[46] = test system: SK-MEL-5
[47] = test system: SK-OV-3
[48] = test system: SN12C
[49] = test system: SNB-19
[50] = test system: SNB-75
[51] = test system: SR
[52] = test system: SW-620
[53] = test system: T47D
[54] = test system: TK-10
[55] = test system: U-251
[56] = test system: UACC-257
[57] = test system: UACC-62
[58] = test system: UO-31
[59] = test system: HCC 2998

For `CSc1nc2cc(S(=O)(=O)N3CCCCC3)ccc2s1`, the GI50 [1] was > 100 µM (inactive), the GI50 [2] was > 100 µM (inactive) and the GI50 [3] was > 100 µM (inactive). The GI50 [4] was > 100 µM (inactive), the GI50 [5] was > 100 µM (inactive) and the GI50 [6] was > 100 µM (inactive). For the same compound, the GI50 [7] was > 100 µM (inactive), the GI50 [8] was > 100 µM (inactive) and the GI50 [9] was > 100 µM (inactive). The GI50 [10] was 41.3 µM (inactive), the GI50 [11] was > 100 µM (inactive) and the GI50 [12] was greater than 100 µM. For the same compound, the GI50 [13] was > 100 µM (inactive), the GI50 [14] was 57 µM (inactive) and the GI50 [15] was > 100 µM (inactive). The GI50 [16] was > 100 µM (inactive), the GI50 [17] was > 100 µM (inactive) and the GI50 [18] was > 100 µM (inactive). For the same compound, the GI50 [19] was > 100 µM (inactive), the GI50 [20] was > 100 µM (inactive) and the GI50 [21] was > 100 µM (inactive). The GI50 [22] was > 100 µM (inactive), the GI50 [23] was > 100 µM (inactive) and the GI50 [24] was > 100 µM (inactive). For the same compound, the GI50 [25] was > 100 µM (inactive), the GI50 [26] was > 100 µM (inactive) and the GI50 [27] was > 100 µM (inactive). For the same compound, the GI50 [28] was > 100 µM (inactive), the GI50 [29] was > 100 µM (inactive) and the GI50 [30] was > 100 µM (inactive). The GI50 [31] was > 100 µM (inactive), the GI50 [32] was 79.1 µM (inactive) and the GI50 [33] was > 100 µM (inactive). For the same compound, the GI50 [34] was > 100 µM (inactive), the GI50 [35] was > 100 µM (inactive) and the GI50 [36] was > 100 µM (inactive). The GI50 [37] was > 100 µM (inactive), the GI50 [38] was > 100 µM (inactive) and the GI50 [39] was > 100 µM (inactive). For the same compound, the GI50 [40] was > 100 µM (inactive), the GI50 [41] was > 100 µM (inactive) and the GI50 [42] was 28 µM (inactive). The GI50 [43] was > 100 µM (inactive), the GI50 [44] was > 100 µM (inactive) and the GI50 [45] was > 100 µM (inactive). The GI50 [46] was > 100 µM (inactive), the GI50 [47] was > 100 µM (inactive) and the GI50 [48] was > 100 µM (inactive). For the same compound, the GI50 [49] was > 100 µM (inactive), the GI50 [50] was 61.4 µM (inactive) and the GI50 [51] was > 100 µM (inactive). The GI50 [52] was > 100 µM (inactive), the GI50 [53] was > 100 µM (inactive) and the GI50 [54] was > 100 µM (inactive). For the same compound, the GI50 [55] was > 100 µM (inactive), the GI50 [56] was 48.3 µM (inactive) and the GI50 [57] was > 100 µM (inactive). For the same compound, the GI50 [58] was > 100 µM (inactive).
`O=c1c2c3c(sc2nc2n1N=C(c1ccc([N+](=O)[O-])cc1)CS2)CCCC3` was tested, and the GI50 [1] was > 100 µM (inactive), the GI50 [2] was > 100 µM (inactive) and the GI50 [3] was > 100 µM (inactive). The GI50 [4] was > 100 µM (inactive), the GI50 [5] was > 100 µM (inactive) and the GI50 [6] was > 100 µM (inactive). For the same compound, the GI50 [7] was > 100 µM (inactive), the GI50 [8] was > 100 µM (inactive) and the GI50 [9] was > 100 µM (inactive). The GI50 [10] was > 100 µM (inactive), the GI50 [59] was > 100 µM (inactive) and the GI50 [11] was > 100 µM (inactive). For the same compound, the GI50 [12] was greater than 100 µM, the GI50 [13] was > 100 µM (inactive) and the GI50 [14] was > 100 µM (inactive). For the same compound, the GI50 [15] was > 100 µM (inactive), the GI50 [16] was > 100 µM (inactive) and the GI50 [17] was > 100 µM (inactive). The GI50 [18] was > 100 µM (inactive), the GI50 [19] was > 100 µM (inactive) and the GI50 [20] was > 100 µM (inactive). The GI50 [21] was > 100 µM (inactive), the GI50 [23] was > 100 µM (inactive) and the GI50 [24] was > 100 µM (inactive). For the same compound, the GI50 [25] was > 100 µM (inactive), the GI50 [26] was > 100 µM (inactive) and the GI50 [27] was > 100 µM (inactive). For the same compound, the GI50 [28] was > 100 µM (inactive), the GI50 [29] was > 100 µM (inactive) and the GI50 [30] was > 100 µM (inactive). The GI50 [31] was > 100 µM (inactive), the GI50 [32] was > 100 µM (inactive) and the GI50 [33] was > 100 µM (inactive). For the same compound, the GI50 [34] was > 100 µM (inactive), the GI50 [35] was > 100 µM (inactive) and the GI50 [36] was > 100 µM (inactive). For the same compound, the GI50 [37] was > 100 µM (inactive), the GI50 [38] was > 100 µM (inactive) and the GI50 [39] was > 100 µM (inactive). The GI50 [40] was > 100 µM (inactive), the GI50 [41] was > 100 µM (inactive) and the GI50 [42] was > 100 µM (inactive). For the same compound, the GI50 [43] was > 100 µM (inactive), the GI50 [44] was > 100 µM (inactive) and the GI50 [46] was > 100 µM (inactive). The GI50 [47] was > 100 µM (inactive), the GI50 [48] was > 100 µM (inactive) and the GI50 [50] was > 100 µM (inactive). The GI50 [51] was > 100 µM (inactive), the GI50 [52] was > 100 µM (inactive) and the GI50 [53] was > 100 µM (inactive). For the same compound, the GI50 [54] was 42.2 µM (inactive), the GI50 [55] was > 100 µM (inactive) and the GI50 [56] was > 100 µM (inactive). The GI50 [57] was > 100 µM (inactive) and the GI50 [58] was > 100 µM (inactive).
`C=C(Br)C(C)(Cl)CCC(Br)C(C)(C)Cl` (stereo not given) was tested, and the GI50 [1] was 20.6 µM (inactive), the GI50 [2] was > 100 µM (inactive) and the GI50 [3] was 36.1 µM (inactive). The GI50 [4] was 29.6 µM (inactive), the GI50 [5] was > 100 µM (inactive) and the GI50 [6] was > 100 µM (inactive). The GI50 [7] was 20.6 µM (inactive), the GI50 [8] was 27 µM (inactive) and the GI50 [9] was > 100 µM (inactive). For the same compound, the GI50 [10] was > 100 µM (inactive), the GI50 [59] was > 100 µM (inactive) and the GI50 [11] was 34.9 µM (inactive). For the same compound, the GI50 [12] was 43 µM, the GI50 [13] was 20.3 µM (inactive) and the GI50 [14] was 41.2 µM (inactive). For the same compound, the GI50 [15] was 35.1 µM (inactive), the GI50 [16] was 34.6 µM (inactive) and the GI50 [17] was 89.7 µM (inactive). For the same compound, the GI50 [18] was 77.3 µM (inactive), the GI50 [19] was 46.3 µM (inactive) and the GI50 [20] was 34.2 µM (inactive). For the same compound, the GI50 [21] was 17.6 µM (inactive), the GI50 [22] was 32.9 µM (inactive) and the GI50 [23] was 55.3 µM (inactive). The GI50 [24] was 42.3 µM (inactive), the GI50 [25] was 28.4 µM (inactive) and the GI50 [26] was 48 µM (inactive). The GI50 [27] was 32.3 µM (inactive), the GI50 [28] was 23.4 µM (inactive) and the GI50 [29] was 25.6 µM (inactive). For the same compound, the GI50 [30] was 41.9 µM (inactive), the GI50 [31] was > 100 µM (inactive) and the GI50 [32] was 40.5 µM (inactive). The GI50 [33] was 72.1 µM (inactive), the GI50 [34] was 20 µM (inactive) and the GI50 [35] was 47.8 µM (inactive). For the same compound, the GI50 [36] was 56.4 µM (inactive), the GI50 [37] was 64.1 µM (inactive) and the GI50 [38] was 39.4 µM (inactive). The GI50 [40] was 24.7 µM (inactive), the GI50 [41] was 63.8 µM (inactive) and the GI50 [42] was 34.8 µM (inactive). For the same compound, the GI50 [43] was 74.8 µM (inactive), the GI50 [44] was > 100 µM (inactive) and the GI50 [46] was 34.2 µM (inactive). For the same compound, the GI50 [47] was > 100 µM (inactive), the GI50 [48] was 40 µM (inactive) and the GI50 [49] was > 100 µM (inactive). For the same compound, the GI50 [51] was > 100 µM (inactive), the GI50 [52] was 36.1 µM (inactive) and the GI50 [53] was > 100 µM (inactive). The GI50 [54] was > 100 µM (inactive), the GI50 [55] was > 100 µM (inactive) and the GI50 [56] was 28.9 µM (inactive). The GI50 [57] was 86.9 µM (inactive) and the GI50 [58] was > 100 µM (inactive).
